Data taken from PMC7155171, “Probing the Open Global Health Chemical Diversity Library for Multistage-Active Starting Points for Next-Generation Antimalarials” (ACS Infectious Diseases, 2020).
Read-outs that look alike come from different tables or passages of the source.

Tests used:
P. falciparum Dd2 = experiment: SYBR green I asexual blood stage proliferation assay (96 h); type: cell-based, Plasmodium falciparum; settings: Plasmodium falciparum
[1] = test system: HepG2-A16-CD81 hepatocytes; experiment: HepG2 cytotoxicity screening (CellTiter-Glo); settings: HepG2-A16-CD81, read-out: HepG2 tox IC50
[2] = test system: P. falciparum asexual blood stage (wild-type and DDD01061024-resistant Dd2-B2 clones); experiment: Lactate dehydrogenase (LDH) asexual blood stage assay; type: cell-based, Plasmodium falciparum; settings: Plasmodium falciparum, DD2, read-out: LDH ABS assay IC50
Text: Mutations within this site, and indeed at our V259L residue, were previously reported using other known cytochrome b inhibitors including ELQ400[49] and RYL-552.[50]
(§1) Figure S3. DDD01061024 is a cytochrome bc1 inhibitor.
The dual stage inhibitor, DDD01061024, is shown occupying the Q0 site (residues outlined in orange) of a Pf Cyt Bc1 homology model (from PDB: 1BE3) (a). A local V259L substitution (red) in mutant clones may destabilize the interactions within this pocket, helping resistant clones tolerate higher doses of the inhibitor (b). DDD01061024-resistannt mutants show cross-resistance to atovaquone (c), another multistage active antimalarial which targets the Q0 binding site. Dose dependent inhibition was determined using a metabolic endpoint (LDH) before normalizing to controls (n=2). Measuring the percentage of PbGFP infected hepatocytes using a high content imaging system validates the liver-stage potency of DDD01061024 in a fluorescence-based model (d). Infected hepatocytes were counted using luminescence-independent high content imaging in treated wells and normalized to controls over two replicates.
(1 picture or pasted object on this page, not shown here)

[3] = test system: P. falciparum Dd2 (PfLuc) line expressing firefly luciferase, asexual blood stage; experiment: microbe, parasite or virus in culture; type: cell-based, Plasmodium falciparum; settings: for IC50 / Emax: Plasmodium falciparum
[4] = target: recombinant firefly luciferase (Photinus pyralis, UniProt P08659); experiment: biochemical; settings: read-out: rLuc IC50
recombinant firefly luciferase, sequence (P08659 whole entry): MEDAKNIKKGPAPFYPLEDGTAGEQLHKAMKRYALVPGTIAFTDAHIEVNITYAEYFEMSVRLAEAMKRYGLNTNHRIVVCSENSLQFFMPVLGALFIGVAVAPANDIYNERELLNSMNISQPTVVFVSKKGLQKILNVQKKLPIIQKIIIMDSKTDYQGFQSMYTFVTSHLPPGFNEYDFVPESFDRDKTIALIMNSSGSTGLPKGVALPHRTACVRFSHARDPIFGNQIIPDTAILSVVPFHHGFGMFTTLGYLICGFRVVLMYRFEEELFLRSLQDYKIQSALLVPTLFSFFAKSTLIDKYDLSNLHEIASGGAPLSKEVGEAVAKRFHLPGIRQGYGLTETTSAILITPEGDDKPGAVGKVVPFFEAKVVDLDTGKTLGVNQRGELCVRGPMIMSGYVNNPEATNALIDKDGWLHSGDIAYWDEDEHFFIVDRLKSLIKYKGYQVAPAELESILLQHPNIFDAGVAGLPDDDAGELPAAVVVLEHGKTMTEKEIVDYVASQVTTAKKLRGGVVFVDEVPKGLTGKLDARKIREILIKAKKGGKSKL

[5] = target: P. berghei liver stage (PbLuc); experiment: P. berghei luciferase liver stage (PbLuc) assay in HepG2-A16-CD81 hepatocytes; type: cell-based, Plasmodium berghei; settings: 48 h liver stage, HepG2-A16-CD81
[6] = test system: P. berghei-GFP (PbGFP) liver stage; experiment: P. berghei-GFP liver stage high content imaging in Huh7.5.1 hepatocytes; type: cell-based; settings: Plasmodium berghei, Huh-7.5.1, 48 h, read-out: liver stage high content imaging assay IC50
Experimental: For the fluorescent liver stage validation, roughly 2500 P. berghei-GFP (PbGFP) sporozoites[76] were dissected from mosquitoes provided by the NYU Insectary Core Facility and seeded onto a lawn of 5000 Huh7.5.1 hepatocytes in 384-well plates. These assay plates were pretreated with DDD01061024 in 8-point dose response (10–4.57 × 10^–3 μM), with atovaquone (0.5–3.91 × 10^–3 μM) and DMSO (0.5%) as positive and negative controls, respectively. Unlike our standard HepG2 cell line, these Huh7.5.1 cells lack GFP expression, making it preferable for these experiments. After a 48 h incubation in the presence of our test compounds, the presence of GFP positive infected cells were imaged and counted using the Operetta High-content Imaging System (PerkinElmer).
as §1
The dual stage inhibitor, DDD01061024, is shown occupying the Q0 site (residues outlined in orange) of a Pf Cyt Bc1 homology model (from PDB: 1BE3) (a). […] Dose dependent inhibition was determined using a metabolic endpoint (LDH) before normalizing to controls (n=2). Measuring the percentage of PbGFP infected hepatocytes using a high content imaging system validates the liver-stage potency of DDD01061024 in a fluorescence-based model (d). Infected hepatocytes were counted using luminescence-independent high content imaging in treated wells and normalized to controls over two replicates. […]

In the case of `Cc1ccc(-c2ccc(C3CNCCO3)nc2)cc1` (centres unmarked) [DDD01061024], the Emax (P. falciparum Dd2; DD2, Sybr Green I, 11-pt dose response, 96hr, read-out: CDD P. falciparum Sybr Green I ABS 11-pt Reconfirmation Dose Response (96hr): Maximum inhibition (%)) is reported as 98.9%, the IC50 (P. falciparum Dd2; 96 h, Dd2, read-out: 96 h SYBR green ABS IC50) is reported as 0.344 µM and the IC50 [1] is reported as over 50 µM. For the same compound, the IC50 [2] was 0.521 µM, the IC50 ([3]; DD2, read-out: CDD P. falciparum Luciferase ABS 11-pt Reconfirmation Dose Response (48hr): IC50 (μM), 11-pt dose response, 48hr) was 0.533 µM and the IC50 ([3]; DD2, 8-pt dose response, 96hr, read-out: CDD P. falciparum Luciferase ABS 8-pt Reconfirmation Dose Response (96hr): IC50) was 0.2 µM. The Emax ([3]; DD2, 11-pt dose response, 48hr, read-out: CDD P. falciparum Luciferase ABS 11-pt Reconfirmation Dose Response (48hr): Maximum inhibition (%)) was 99.6%, the IC50 ([3]; DD2, 11-pt dose response, 96hr, read-out: CDD P. falciparum Luciferase ABS 11-pt Reconfirmation Dose Response (96hr): IC50) was 0.574 µM and the Emax ([3]; DD2, 11-pt dose response, 96hr, read-out: CDD P. falciparum Luciferase ABS 11-pt Reconfirmation Dose Response (96hr): Maximum inhibition (%)) was 99.5%. For the same compound, the “ABS IC50” value ([3]; asexual blood stage, assay format not given) was “submicromolar”, the IC50 [4] was 0.0032 µM and the “Pbluc (EEF) IC50” value [5] was “submicromolar”. For the same compound, the IC50 ([5]; Plasmodium berghei, HepG2-A16-CD81, 48 h, read-out: Pbluc (EEF) IC50) was under 0.000141 µM and the IC50 [6] was 0.375 µM.
